Broadly, the IC50 is the concentration needed to halve the response being measured. A high value points to weaker potency in that assay.

In this assay the target is H1047R PIK3CA enzyme (Homo sapiens, UniProt P42336, H1047R). In words: ADP-Glo Biochemical PIK3CA Kinase Assay. On the technique in general: ADP-Glo first removes unused ATP, then detects ADP through luciferase.
H1047R PIK3CA enzyme, sequence (P42336 whole entry H1047R): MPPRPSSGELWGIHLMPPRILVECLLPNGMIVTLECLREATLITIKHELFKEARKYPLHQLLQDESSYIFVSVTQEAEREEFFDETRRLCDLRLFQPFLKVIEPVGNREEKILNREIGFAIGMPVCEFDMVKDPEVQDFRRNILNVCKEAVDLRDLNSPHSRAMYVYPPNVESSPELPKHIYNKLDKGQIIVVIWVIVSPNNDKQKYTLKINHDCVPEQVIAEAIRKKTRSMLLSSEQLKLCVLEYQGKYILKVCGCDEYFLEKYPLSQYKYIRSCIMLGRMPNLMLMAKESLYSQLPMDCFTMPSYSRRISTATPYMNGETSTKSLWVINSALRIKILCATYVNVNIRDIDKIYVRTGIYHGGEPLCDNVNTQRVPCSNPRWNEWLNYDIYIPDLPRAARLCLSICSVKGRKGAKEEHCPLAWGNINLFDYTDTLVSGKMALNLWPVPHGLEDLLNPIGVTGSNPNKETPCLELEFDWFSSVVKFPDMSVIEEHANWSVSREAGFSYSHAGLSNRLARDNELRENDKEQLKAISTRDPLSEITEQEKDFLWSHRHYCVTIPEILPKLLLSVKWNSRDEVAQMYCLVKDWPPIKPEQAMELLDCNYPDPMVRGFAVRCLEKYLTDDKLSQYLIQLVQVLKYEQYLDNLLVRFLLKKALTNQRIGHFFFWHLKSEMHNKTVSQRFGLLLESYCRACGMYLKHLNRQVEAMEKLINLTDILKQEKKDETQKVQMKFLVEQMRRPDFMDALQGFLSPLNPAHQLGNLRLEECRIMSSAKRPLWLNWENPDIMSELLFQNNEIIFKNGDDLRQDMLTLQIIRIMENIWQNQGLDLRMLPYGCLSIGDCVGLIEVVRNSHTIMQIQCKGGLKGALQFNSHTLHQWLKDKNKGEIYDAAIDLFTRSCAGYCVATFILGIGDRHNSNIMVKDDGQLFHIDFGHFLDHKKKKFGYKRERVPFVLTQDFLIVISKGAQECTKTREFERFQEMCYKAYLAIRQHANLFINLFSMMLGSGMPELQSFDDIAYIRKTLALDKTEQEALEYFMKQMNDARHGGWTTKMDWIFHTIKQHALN
H1047R PIK3CA enzyme, sequence (P27986 whole entry partner): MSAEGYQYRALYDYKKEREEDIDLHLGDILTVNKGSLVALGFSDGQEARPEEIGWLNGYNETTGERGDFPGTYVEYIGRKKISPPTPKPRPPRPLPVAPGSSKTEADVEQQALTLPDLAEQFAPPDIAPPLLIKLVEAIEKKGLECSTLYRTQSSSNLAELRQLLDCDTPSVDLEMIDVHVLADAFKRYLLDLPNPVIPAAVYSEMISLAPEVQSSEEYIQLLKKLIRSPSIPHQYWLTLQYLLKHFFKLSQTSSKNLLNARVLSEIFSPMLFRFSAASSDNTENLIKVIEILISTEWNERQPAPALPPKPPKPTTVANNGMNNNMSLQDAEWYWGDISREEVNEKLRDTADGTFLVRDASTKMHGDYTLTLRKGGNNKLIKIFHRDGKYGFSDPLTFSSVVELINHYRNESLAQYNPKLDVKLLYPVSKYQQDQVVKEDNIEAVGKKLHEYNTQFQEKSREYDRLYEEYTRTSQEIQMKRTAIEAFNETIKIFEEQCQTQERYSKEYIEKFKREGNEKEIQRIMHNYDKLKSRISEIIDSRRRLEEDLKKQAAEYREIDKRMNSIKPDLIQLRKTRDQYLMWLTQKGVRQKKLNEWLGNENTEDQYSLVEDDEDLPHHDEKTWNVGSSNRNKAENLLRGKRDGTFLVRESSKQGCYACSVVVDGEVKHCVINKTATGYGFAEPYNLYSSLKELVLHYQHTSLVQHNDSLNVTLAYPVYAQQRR
With `O=C1N[C@H](c2cc(F)ccc2Cl)c2c(NC(=O)[C@H]3C[C@H](O)C[C@@H](C(F)(F)F)C3)cc(Br)cc21` (single isomer, unassigned) [Compound I-2150], the IC50 was 1 to 10 µM.
The molecule `O=C1N[C@@H](c2cc(F)ccc2Cl)c2c(NC(=O)[C@H]3C[C@H](O)C[C@@H](C(F)(F)F)C3)cc(Br)cc21` (single isomer, unassigned) [Compound I-2151] had an IC50 of 1 to 10 µM.
For `O=C1N[C@@H](c2cc(F)ccc2Cl)c2c(NC(=O)[C@H]3CC(C(F)(F)F)C[C@@H](O)C3)cc(Br)cc21` (single isomer, unassigned) [Compound I-2152], the IC50 lay in the range of 1 to 10 µM.
For `O=C1N[C@H](c2cc(F)ccc2Cl)c2c(N[C@H]3CCOc4ccccc43)cc(-c3cnn(C(F)F)c3)nc21` (single isomer, unassigned) [Compound I-2159] the value was 1 to 10 µM.
With `O=C1N[C@@H](c2cc(F)ccc2Cl)c2c(N[C@H]3CCOc4ccccc43)cc(-c3cnn(C(F)F)c3)nc21` (single isomer, unassigned) [Compound I-2160], the IC50 is 10 to 100 µM.
In turn, `O=C1N[C@@H](c2cc(F)ccc2Cl)c2c(NC(=O)[C@@H]3C[C@@H](O)C[C@H](C(F)(F)F)C3)cccc21` (single isomer, unassigned) [Compound I-2175] displayed an IC50 of 10 to 100 µM.
As for `O=C1N[C@H](c2cc(F)ccc2Cl)c2c(NC(=O)[C@@H]3C[C@@H](O)C[C@H](C(F)(F)F)C3)cccc21` (single isomer, unassigned) [Compound I-2176], the IC50 lay in the range of 10 to 100 µM.
Turning to `O=C1N[C@@H](c2cc(F)ccc2Cl)c2c(NC(=O)[C@H]3C[C@H](O)C[C@@H](C(F)(F)F)C3)cccc21` (single isomer, unassigned) [Compound I-2177], the IC50 was in the range of 1 to 10 µM.
`O=C1N[C@H](c2cc(F)ccc2Cl)c2c(NC(=O)[C@H]3C[C@H](O)C[C@@H](C(F)(F)F)C3)cccc21` (single isomer, unassigned) [Compound I-2178] gave a half-inhibitory concentration (IC50) of 10 to 100 µM.
`O=C1N[C@@H](c2cc(F)ccc2Cl)c2c(NC(=O)[C@H]3C[C@H](O)C[C@@H](C(F)(F)F)C3)cc(Br)cc21` (single isomer, unassigned) [Compound I-2179] registered an IC50 of 0.5 to 1 µM.
As to `C[C@]1(O)CN(C(=O)Nc2cccc3c2[C@@H](c2cc(F)ccc2Cl)NC3=O)c2ccccc21` (single isomer, unassigned) [Compound I-2203], the IC50 lay within 1 to 10 µM.
`C[C@@]1(O)CN(C(=O)Nc2cccc3c2[C@@H](c2cc(F)ccc2Cl)NC3=O)c2ccccc21` (single isomer, unassigned) [Compound I-2204] came in with an IC50 of 1 to 10 µM.
In the case of `C[C@@]1(O)CN(C(=O)Nc2cccc3c2[C@H](c2cc(F)ccc2Cl)NC3=O)c2ccccc21` (single isomer, unassigned) [Compound I-2206] it was 10 to 100 µM; in that of `O=C1N[C@H](c2cc(F)ccc2Cl)c2c(NC(=O)N3C[C@H](O)c4cccc(F)c43)cccc21` (single isomer, unassigned) [Compound I-2207], 1 to 10 µM.
For `O=C1N[C@H](c2cc(F)ccc2Cl)c2c(NC(=O)N3C[C@@H](O)c4cccc(F)c43)cccc21` (single isomer, unassigned) [Compound I-2208], the IC50 was 10 to 100 µM.
For `O=C1N[C@@H](c2cc(F)ccc2Cl)c2c(NC(=O)N3C[C@H](O)c4cccc(F)c43)cccc21` (single isomer, unassigned) [Compound I-2209] the value was 10 to 100 µM; for `O=C1N[C@@H](c2cc(F)ccc2Cl)c2c(NC(=O)N3C[C@@H](O)c4cccc(F)c43)cccc21` (single isomer, unassigned) [Compound I-2210], 10 to 100 µM.
Molecule `O=C1N[C@H](c2cc(F)ccc2Cl)c2c(NC(=O)[C@H]3CCC[C@H](OC(F)(F)F)C3)cccc21` (single isomer, unassigned) [Compound I-2211] yielded an IC50 of 10 to 100 µM.
Molecule `O=C1N[C@@H](c2cc(F)ccc2Cl)c2c(NC(=O)[C@H]3CCC[C@H](OC(F)(F)F)C3)cccc21` (single isomer, unassigned) [Compound I-2212] registered an IC50 of 10 to 100 µM.
Molecule `O=C1N[C@H](c2cc(F)ccc2Cl)c2c(NC(=O)[C@@H]3CCC[C@H](OC(F)(F)F)C3)cccc21` (single isomer, unassigned) [Compound I-2213] came in with an IC50 of 10 to 100 µM.
With `O=C1N[C@@H](c2cc(F)ccc2Cl)c2c(NC(=O)[C@@H]3CCC[C@H](OC(F)(F)F)C3)cccc21` (single isomer, unassigned) [Compound I-2214], the IC50 was 10 to 100 µM.
On to `O=C1N[C@H](c2cc(F)ccc2Cl)c2c(NC(=O)[C@@H]3CCC[C@@H](OC(F)(F)F)C3)cccc21` (single isomer, unassigned) [Compound I-2215], for which the 50% inhibitory concentration (IC50) fell in the range of 10 to 100 µM.
In the case of `O=C1N[C@@H](c2cc(F)ccc2Cl)c2c(NC(=O)[C@@H]3CCC[C@@H](OC(F)(F)F)C3)cccc21` (single isomer, unassigned) [Compound I-2216] it was 10 to 100 µM; in that of `O=C1N[C@H](c2cc(F)ccc2Cl)c2c(NC(=O)[C@H]3CCC[C@@H](OC(F)(F)F)C3)cccc21` (single isomer, unassigned) [Compound I-2217], 10 to 100 µM.
For the molecule `O=C1N[C@@H](c2cc(F)ccc2Cl)c2c(NC(=O)[C@H]3CCC[C@@H](OC(F)(F)F)C3)cccc21` (single isomer, unassigned) [Compound I-2218], the IC50 fell in the range of 10 to 100 µM.
`O=C(Nc1cccc2c1[C@@H](C1CC1)NC2=O)c1cc(F)cc(C(F)(F)F)c1` (single isomer, unassigned) [Compound I-2220] registered a 50% inhibitory concentration (IC50) of 10 to 100 µM.
As to `O=C(Nc1cccc2c1[C@H](C1CC1)NC2=O)c1cc(F)cc(C(F)(F)F)c1` (single isomer, unassigned) [Compound I-2221], the IC50 was in the range of 10 to 100 µM.
`O=C(Nc1cccc2c1[C@@H](C1CCC[C@H](O)C1)NC2=O)c1cc(F)cc(C(F)(F)F)c1` (single isomer, unassigned) [Compound I-2225] yielded a 50% inhibitory concentration (IC50) of 10 to 100 µM.
The molecule `C[C@H](O)c1cc(-c2ccc3ncnn3c2)cc2c1[C@@H](c1cc(F)ccc1Cl)NC2=O` (single isomer, unassigned) [Compound I-2228] yielded an IC50 of 10 to 100 µM.
In the case of `C[C@H](O)c1cc(-c2ccc3ncnn3c2)cc2c1[C@H](c1cc(F)ccc1Cl)NC2=O` (single isomer, unassigned) [Compound I-2229] it was 10 to 100 µM; in that of `C[C@@H](O)c1cc(-c2ccc3ncnn3c2)cc2c1[C@@H](c1cc(F)ccc1Cl)NC2=O` (single isomer, unassigned) [Compound I-2230], 10 to 100 µM; in that of `C[C@@H](O)c1cc(-c2ccc3ncnn3c2)cc2c1[C@H](c1cc(F)ccc1Cl)NC2=O` (single isomer, unassigned) [Compound I-2231], 10 to 100 µM.
In turn, `O=C(Nc1cc(-c2cn3ncnc3cn2)cc2c1[C@@H](c1cc(F)ccc1C(F)F)NC2=O)c1cc(F)cc(C(F)(F)F)c1` (single isomer, unassigned) [Compound I-2233] displayed an IC50 of 1 to 10 µM.
With `O=C1N[C@H](c2cc(F)ccc2Cl)c2c(NC(=O)N3C[C@H](O)C[C@@H](C(F)(F)F)C3)cccc21` (single isomer, unassigned) [Compound I-2236], the IC50 fell in the range of 10 to 100 µM.
In the case of `O=C1N[C@@H](c2cc(F)ccc2Cl)c2c(NC(=O)N3C[C@H](O)C[C@@H](C(F)(F)F)C3)cccc21` (single isomer, unassigned) [Compound I-2237] it was 1 to 10 µM.

For the origin of these results see patent publication US12581252B2, “Substituted pyrrolo[3,4-b]pyridines as PI3K-α inhibitors” (Relay Therapeutics, Inc., priority 2020, dated 2026).
